Patent US11612586B2, “Indole regulation of antigen presenting cells” (THE TEXAS A&M UNIVERSITY SYSTEM, priority 2016, dated 2023)

Legend:
[1] = system: IL-12; test: IL-12 production in BMDCs, intracellular staining, flow cytometry; type: cell-based, mouse
Experimental: Intracellular staining was performed to assess TNF (FIG. 3A) and IL-12 (FIG. 3B) production.
Briefly, bone marrow was harvested from femurs of mice and cultured for 7 days in the presence of DC-skewing cytokines, GM-CSF and IL-4. […] The pro-inflammatory cytokines, IL-6 and IL-12, were specifically queried. […] Immune cells communicate largely through the production of soluble factors including cytokines, and DCs detect these signals and determine their effector functions accordingly.
The inventors performed a series of assays where bone marrow derived macrophages (BMDMs), bone marrow derived dendritic cells (BMDCs), and splenic dendritic cells (splenic DCs), were exposed to a series of TDMMs, including indole, indole-3-acetate (I3AT), 5-hydroxyindole (5HI), and indole-3-pyruvate (I3P), as well as indole-3-carbinol (I3C; a plant derived compound) to be used for a positive control (1 mM for 24 hours). The BMDMs and BMDCs were stimulated with LPS for 4 hours and assayed at day 7 for expression of various pro-inflammatory cytokines. In a similar assay, the BMDMs and BMDCs were stimulated with LPS or CpG, respectively, for 15 minutes and assayed for pAKT and pERK signaling, which is a reflection of pro-inflammatory response.

[2] = system: Th1 cells; test: Th1 differentiation in DC-T cell co-culture; type: cell-based, mouse
Experimental: FIGS. 19A-19C graphically illustrate that indole-conditioned DCs inhibit Th1, Th2, and Th17 differentiation. Naïve CD4+CD25-T cells from OT-II TCR transgenic mice were isolated by column purification. Naïve T cells were then co-cultured with OVA323-339 peptide-loaded BMDCs for 72 hours in the presence or absence of lineage-skewing cytokines (described in methods). BMDCs were previously treated with indole, RA, or DMF from day 3. For the last 5 hours of culture, T cells were restimulated with PMA and ionomycin in the presence of Golgiplug, followed by intracellular staining. Cytokine production was determined to assess differentiation of Th1 (FIG. 19A), Th2 (FIG. 19B), and Th17 CD4+T (FIG. 19C) cells. Mean of three independent experiments. * indicates p<0.05 for one-way ANOVA followed by Dunnett's post-test.
FIGS. 20A and 20B graphically illustrate that T cell skewing mediated by indole-conditioned DCs is AhR-independent. BMDCs were differentiated from WT or AhR-KO mice and conditioned with indole, RA, or DMF from day 3. DCs were then loaded with OVA323-339 and co-cultured with naïve CD4+CD25− T cells from OT-II transgenic mice for 72 hours. […] Subsequently, all cultures were stained and analyzed by flow cytometry for Foxp3 to identify Tregs or (B) IFNγ to identify Th1 cells. […]

[3] = system: MHC-II and CD86; conditions: BMDC, indole from day 0, 3, or 6, LPS stimulation
Experimental: Upon encountering and engulfing antigen, DCs upregulate their expression of maturation markers including MHC-II and the co-stimulatory molecule, CD86.
All primary cells were cultured in RPMI 1640 supplemented with 2-mercaptoethanol, gentamicin, penicillin, streptomycin, and 10% FCS (all from Life Technologies). Bone marrow-derived dendritic cells were cultured as previously described (Inaba K, et al. (1992) Generation of large numbers of dendritic cells from mouse bone marrow cultures supplemented with granulocyte/macrophage colony-stimulating factor. The Journal of Experimental Medicine 176(6):1693-1702) with slight modifications. Briefly, bone marrow cells were harvested from murine femurs and cultured in complete media supplemented with 10% FCS, 20 ng/ml GM-CSF (Peprotech), and 10 ng/ml IL-4 (Peprotech). Media was replenished at day 2, 4, and 6 of the 7 day culture.

c1ccc2[nH]ccc2c1 [Indole, indole]
reduction in IL-12 ([1]; BMDCs exposed to indole from day 3 of 7 day culture, LPS stimulation): 40%
IL-12 ([1]; BMDCs, 1 mM TDMM 24 hours, LPS (1 ug/ml) 4 hours): ↓↓
inhibition of IL-12 production ([1]; BMDCs, indole 24 hours (overnight), LPS 1 ug/ml 4 hours): ≥ 2 fold
development of Th1 lineage ([2]; co-culture with DCs conditioned with indole): stark inhibition
AhR dependence of inhibition of the Th1 lineage ([2]; indole-conditioned BMDCs from wild-type or AhR-deficient mice): AhR-independent
DC maturation (MHC-II and CD86 expression) [3]: did not alter DC maturation
